Assay results: US20260317357A1, “HETEROCYCLIC COMPOUNDS AS STING AGONISTS” (LigaChem Biosciences Inc., priority 2022, published 2026)

Key:
hSTING-R232 = target: T1, hSTING-R232 (Homo sapiens, UniProt Q86WV6, H232R); test: STING agonist activity, THP1 Dual KI-hSTING-R232 IRF luciferase reporter cells; type: cell-based; conditions: 24 hours
T1 construct: host or cells: THP1 Dual KI-hSTING-R232 (STING HAQ gene removed, R232 variant gene introduced)
Method: (§1) In order to evaluate the activity of the STING agonist, reporter cells from Invivogen were used. The cell lines used in the experiment were THP1 Dual™ (InvivoGen #thpd-nfis) expressing the endogenous STING variant HAQ and THP1 Dual™ KI-hSTING-R232 (InvivoGen #thpd-r232/h232) into which the STING R232 or H232 variant gene was injected after removing the STING HAQ gene. The cell lines have a luciferase reporter gene inserted below the IFN regulatory factor (IRF) promoter, and thus the activity of the IFN regulatory factor (IRF) mechanism can be evaluated through luciferase expression.
(§2) The reporter cells were plated at 9.0×10^4 cells/100 μL per well in a 96-well plate using RPMI 1640 medium (Gibco, #22400097) supplemented with 10% heat-inactivated FBS and 1×Antibiotic-Antimycotic (Gibco, #15240062), 10 μg/mL blasticidin (Gibco, #A1113902), and 100 μg/mL Zeocin (Gibco, #R25005). The plated cells were cultured at 37° C., 5% CO2 for 24 hours, and then treated with 100 μL of the serially diluted compound in each well, and then cultured at 37° C., 5% CO2 for 24 hours. After culturing, 20 μL of the cell culture medium was transferred to a 96 well white plate, and QUANTI-Luc™ (InvivoGen #rep-qlcl) was added at 50 µL/well. Using a microplate reader (Perkin Elmer), the value of the luminescence signal increased in the experimental group treated with the drug compared to the control group not treated with the drug was calculated. EC50 values were derived according to the concentration of the compound using GraphPad Prism.

human STING = target: T2, human STING (Homo sapiens, UniProt Q86WV6); test: Direct binding potency, HUMAN STING WT BINDING KIT (Cisbio); conditions: in vitro
T2 construct: purchased Cisbio #64BDSTGPEG
T2 sequence (Q86WV6 whole entry): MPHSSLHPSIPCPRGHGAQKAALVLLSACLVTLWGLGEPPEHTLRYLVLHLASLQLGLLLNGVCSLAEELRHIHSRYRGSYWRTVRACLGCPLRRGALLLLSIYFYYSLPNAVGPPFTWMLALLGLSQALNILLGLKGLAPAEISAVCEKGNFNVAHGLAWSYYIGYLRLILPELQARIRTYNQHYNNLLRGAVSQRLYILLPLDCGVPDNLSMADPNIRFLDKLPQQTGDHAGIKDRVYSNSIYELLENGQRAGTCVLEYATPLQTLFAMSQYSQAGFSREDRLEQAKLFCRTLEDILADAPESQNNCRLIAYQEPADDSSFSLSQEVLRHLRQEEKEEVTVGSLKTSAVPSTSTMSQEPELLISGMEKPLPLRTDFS
Source text: Additionally, or analysis of direct binding potency of STING agonist compounds described herein to human STING, HUMAN STING WT BINDING KIT (Cisbio, #64BDSTGPEG) was used according to the manufacturer's instruction.

hSTING-HAQ = target: T3, hSTING-HAQ (Homo sapiens, UniProt Q86WV6, G230A/H232R/R293Q/R71H); test: STING agonist activity, THP1 Dual reporter cells expressing endogenous STING variant HAQ; type: cell-based; conditions: IRF luciferase, 24 hours
T3 construct: expressing the endogenous STING variant HAQ; host or cells: THP1 Dual
T3 sequence (Q86WV6 whole entry R71H/G230A/H232R/R293Q): as the sequence (Q86WV6 whole entry) above, with R71H, G230A, H232R, R293Q counted along it
Method: as §1, §2

hSTING-H232 = target: T4, hSTING-H232 (Homo sapiens, UniProt Q86WV6); test: STING agonist activity, THP1 Dual reporter cells with STING H232 variant; type: cell-based; conditions: IRF luciferase, 24 hours
T4 construct: host or cells: THP1 Dual KI-hSTING (STING HAQ gene removed, H232 variant gene introduced)
T4 sequence (Q86WV6 whole entry): as the sequence (Q86WV6 whole entry) above
Method: as §1, §2

[1] = In vitro cell cytotoxicity in PBMCs (CellTiter-Glo); type: cell-based
Method: PBMCs were also purchased from […]™ (#700025.2). The cells (8.0×10^4 cells per well) were seeded in a flat-bottomed 96-well plate in RPMI 1640 medium (Gibco, #22400097) with 10% heat-inactivated FBS and 1×Antibiotic-Antimycotic (Gibco, #15240062) and rested for 24 hours at 37° C. […] After 72 hours, the cell viability was measured using CellTiter-Glo Luminescent Cell Viability Assay (Promega, #G7573) according to the manufacture's instruction. The signal was detected using an EnVision Xcite multilabel reader and data were analyzed using GraphPad Prism 8 software.
To verify the effect of the STING agonist compounds in normal cell cytotoxicity, the PBMCs were treated with the STING agonist compounds for 3 days and measured the percentage of cell death.

[2] = In vitro cell cytotoxicity in CD34+ HSC (CellTiter-Glo); type: cell-based; conditions: cd34+ hscs
Method: The CD34^+ hematopoietic stem cells (HSCs) were purchased from […]™ (#70002.3). The cells (2×10^4 cells per well) were cultured in StemSpan™ SFEM II medium supplemented with StemSpan™ CD34+ Expansion Supplement (#02691) in a 6-well plate at 37° C. for 7 days. On day 3 or 4, an equal volume of fresh complete medium was added into the cell culture. On day 7, the cells (4×10^4 cells per well) were seeded in a 96-well white plate and rested for 24 hours in the same condition.
After 72 hours, the cell viability was measured using CellTiter-Glo Luminescent Cell Viability Assay (Promega, #G7573) according to the manufacture's instruction. The signal was detected using an EnVision Xcite multilabel reader and data were analyzed using GraphPad Prism 8 software.

[3] = Pharmacokinetics in Balb/C mouse after single IV dose; type: in vivo; conditions: 1.5 mg/kg; for AUC∞, norm / Cmax, norm / AUC(0-inf) / AUC(0-t) / C0 / Cmax: n = 3, plasma; for AUC∞, norm / Cmax, norm: dose-normalized; for clearance / half-life / Vd: plasma; for clearance / half-life: n = 3; for Vd: n = 3, read-out: VSS
Method: For in vivo evaluation of STING agonist compounds described herein in naïve Balb/C mouse, single doses of STING agonist compounds were given at 1.5 mg/kg intravenously into female BALB/c mice (Orientbio, South Korea) at 6-8 weeks of age. Pharmacokinetics were studied following injection of the STING agonist compounds into Balb/C mice. Plasma samples were taken at various time points and stored frozen for analysis. The plasma concentrations of the STING agonist compounds at the indicated time points were measured using a LC-MS/MS analysis method.
Briefly, 250 μL of acetonitrile (ACN) solution was added in both 50 µL of sample and 50 µL of plasma containing 10 nM Dextromethorphan (internal standard), and the solutions were mixed vigorously using a vortex mixer for 5 minutes. The samples were then spun down at 14,000 rpm, 4° C. for 5 minutes. 100 μL of supernatants were combined with 100 μL of mobile phase A (0.1% formic acid in water with 5% ACN) and mixed thoroughly. The samples were measured for the STING agonist compounds using a LC-MS/MS (Nexera LC40 (SHIMADZU) and QTRAP4500 (SCIEX)).

T1 sequence (Q86WV6 whole entry H232R): as the sequence (Q86WV6 whole entry) above, with H232R counted along it

SMILES	EC50 (hSTING-R232)	EC50 (human STING)	EC50 (hSTING-HAQ)	EC50 (hSTING-H232)	CC50 at 72 h [1]	AUC∞, norm [3]	Cmax, norm [3]	further results
CCc1nc(C)oc1C(=O)Nc1nc2cc(C(N)=O)cc(OC/C=C/Cn3cc(N)cn3)c2n1C/C=C/Cn1c(NC(=O)c2cc(C)nn2CC)nc2cc(C(N)=O)cc(OC)c21 [Compound 151]	2.21 nM	0.13 nM	–	–	–	–	–	–
CCn1nc(C)cc1C(=O)Nc1nc2cc(C(N)=O)cc(OC)c2n1C/C=C/Cn1c(NC(=O)c2cc(C)nn2CC)nc2cc(C(N)=O)cc(OC/C=C/CN3CCNCC3=O)c21 [Compound 28]	3.37 nM	–	15.5 nM	9.5 nM	12.7 nM	–	–	CC50 at 72 h [2]: 24.9 nM
CCn1nc(C)cc1C(=O)Nc1nc2cc(C(N)=O)cc(OC)c2n1C/C=C/Cn1c(NC(=O)c2cc(C)nn2CC)nc2cc(C(N)=O)cc(OCCCN3CCOCC3)c21 [Comparative #1, reference compound]	–	–	–	–	3.3 nM	0.66 ± 0.07 kg·h/L	1.94 ± 0.30 kg/L	–
CCn1nc(C)cc1C(=O)Nc1nc2cc(C(N)=O)cc(OC)c2n1C/C=C/Cn1c(NC(=O)c2cc(C)nn2CC)nc2cc(C(N)=O)cc(OC/C=C/Cn3cc(N)cn3)c21 [Compound 55]	0.5 nM	0.22 nM	6.3 nM	5.5 nM	4 nM	3.44 ± 0.08 kg·h/L	9.42 ± 0.39 kg/L	AUC(0-inf) [3]: 5160 ± 120 ng·h/mL; AUC(0-t) [3]: 5110 ± 120 ng·h/mL; C0 [3]: 21100 ± 2210 ng/mL; Cmax [3]: 14100 ± 590 ng/mL; clearance [3]: 4.83 mL/min/kg; half-life [3]: 1.2 ± 0.08 h; Vd [3]: 0.15 L/kg; CC50 at 72 h [2]: 7.9 nM
CCc1nc(C)sc1C(=O)Nc1nc2cc(C(N)=O)cc(OC/C=C/Cn3cc(N)cn3)c2n1C/C=C/Cn1c(NC(=O)c2cc(C)nn2CC)nc2cc(C(N)=O)cc(OC)c21 [Compound 155]	2.6 nM	0.4 nM	–	–	–	–	–	–
CCn1nc(C)cc1C(=O)Nc1nc2cc(C(N)=O)cc(OC/C=C/Cn3cc(N)cn3)c2n1C/C=C/Cn1c(NC(=O)c2cc(C)nn2CC)nc2cc(C(N)=O)cc(OCCCC(=O)O)c21 [Compound 65]	1.7 nM	0.43 nM	25.5 nM	7 nM	18.5 nM	0.29 ± 0.03 kg·h/L	0.64 ± 0.11 kg/L	AUC(0-inf) [3]: 440 ± 440 ng·h/mL; AUC(0-t) [3]: 430 ± 50 ng·h/mL; C0 [3]: 1300 ± 430 ng/mL; Cmax [3]: 960 ± 170 ng/mL; clearance [3]: 57.5 mL/min/kg; half-life [3]: 0.47 ± 0.08 h; Vd [3]: 1.58 ± 0.13 L/kg; CC50 at 72 h [2]: 3.9 nM
CCn1nc(C)cc1C(=O)Nc1nc2cc(C(N)=O)cc(OC)c2n1C/C=C/Cn1c(NC(=O)c2cc(C)nn2CC)nc2cc(C(N)=O)cc(OC/C=C/CN)c21 [Compound 145]	2.23 nM	–	–	–	–	–	–	–
CCn1nc(C)cc1C(=O)Nc1nc2cc(C(N)=O)cc(OC)c2n1C/C=C/Cn1c(NC(=O)c2cc(C)nn2CC)nc2cc(C(N)=O)cc(OC/C=C/CN3CCCN3)c21 [Compound 133]	0.33 nM	0.43 nM	–	–	–	0.63 ± 0.07 kg·h/L	1.76 ± 0.27 kg/L	AUC(0-inf) [3]: 950 ± 110 ng·h/mL; AUC(0-t) [3]: 920 ± 110 ng·h/mL; C0 [3]: 4500 ± 850 ng/mL; Cmax [3]: 2650 ± 400 ng/mL; clearance [3]: 26.5 mL/min/kg; half-life [3]: 1.61 ± 0.02 h; Vd [3]: 1.39 ± 0.21 L/kg
CCn1nc(C)cc1C(=O)Nc1nc2cc(C(N)=O)cc(OC)c2n1C/C=C/Cn1c(NC(=O)c2cc(C)nn2CC)nc2cc(C(N)=O)cc(OC/C=C/CNC(=N)N)c21 [Compound 166]	1.17 nM	–	–	–	–	–	–	–
CCc1nc(C)oc1C(=O)Nc1nc2cc(C(N)=O)cnc2n1C/C=C/Cn1c(NC(=O)c2oc(C)nc2CC)nc2cc(C(N)=O)cc(OCCCO)c21 [Comparative #2, reference compound]	3.39 nM	–	89.4 nM	9.5 nM	–	0.05 ± 0.01 kg·h/L	0.16 ± 0.02 kg/L	–
CCn1nc(C)cc1C(=O)Nc1nc2cc(C(N)=O)cc(OC)c2n1C/C=C/Cn1c(NC(=O)c2cc(C)nn2CC)nc2cc(C(N)=O)cc(OC/C=C/CC3CCNCC3)c21 [Compound 89]	6.97 nM	–	–	–	–	–	–	–
CCn1nc(C)cc1C(=O)Nc1nc2cc(C(N)=O)cc(OC)c2n1C/C=C/Cn1c(NC(=O)c2cc(C)nn2CC)nc2cc(C(N)=O)cc(OC/C=C/Cn3ncc(CN)n3)c21 [Compound 110]	1.36 nM	–	–	–	–	–	–	–
CCn1nc(C)cc1C(=O)Nc1nc2cc(C(N)=O)cc(OC)c2n1C/C=C/Cn1c(NC(=O)c2cc(C)nn2CC)nc2cc(C(N)=O)cc(OCCCS(C)(=N)=O)c21 (stereo not drawn) [Compound 187]	4.13 nM	–	–	–	–	–	–	–
